Measurements reported in patent US20230330045A1 (priority 2020, published 2023).
Read-outs that look alike come from different tables or passages of the source.

Key:
GR (h) = GR (h) (Homo sapiens, UniProt P04150); test: SafetyScreen44 binding assay GR (h); conditions: agonist radioligand, read-out: % Inhibition of Specific Control Binding
Source text: (§1) This panel included 38 binding assays and six functional assays of well-established targets and pathways that lead to off-target adverse drug reactions.

M2 (h) = M2 (h) (Homo sapiens, UniProt P08172); test: SafetyScreen44 binding assay M2 (h); conditions: antagonist radioligand, read-out: % Inhibition of Specific Control Binding
Source text: as §1

hERG potassium channel = hERG potassium channel (Homo sapiens, UniProt Q12809); test: SafetyScreen44 binding assay Potassium Channel hERG (human)-[3H] Dofetilide; conditions: probe [3H] Dofetilide, read-out: % Inhibition of Specific Control Binding
Source text: as §1

D1 (h) = D1 (h) (Homo sapiens, UniProt P21728); test: SafetyScreen44 binding assay D1 (h); conditions: antagonist radioligand, read-out: % Inhibition of Specific Control Binding
Source text: as §1

M1 (h) = M1 (h) (Homo sapiens, UniProt P11229); test: SafetyScreen44 binding assay M1 (h); conditions: antagonist radioligand, read-out: % Inhibition of Specific Control Binding
Source text: as §1

[1] = target: eel acetylcholinesterase (AChE) (Electrophorus electricus, UniProt O42275); test: Eel AChE fluorescence assay (AMPLEX Red kit); assay type: biochemical
Method: Enzymatic reactions consisted of 50 μM acetylcholine, 200 μM AIVIPLEX™ Red reagent, 1 U/mL horseradish peroxidase, 0.1 U/mL choline oxidase and 0.096 U/mL acetylcholinesterase, with 30 1% DMSO. […] Control reactions lacking acetylcholinesterase but containing 5 μM H2O2 in presence of compounds were analyzed at the same wavelength to exclude compounds that display assay interference. Dose-response curves were performed in duplicate.

V1a (h) = V1a (h) (Homo sapiens, UniProt P37288); test: SafetyScreen44 binding assay V1a (h); conditions: agonist radioligand, read-out: % Inhibition of Specific Control Binding
Source text: as §1

dopamine transporter (h) = dopamine transporter (h) (Homo sapiens, UniProt Q01959); test: SafetyScreen44 binding assay dopamine transporter (h); conditions: antagonist radioligand, read-out: % Inhibition of Specific Control Binding
Source text: as §1

NMDA = test: SafetyScreen44 binding assay NMDA; conditions: at 1 μM; antagonist radioligand
Source text: as §1

H2 (h) = H2 (h) (Homo sapiens, UniProt P25021); test: SafetyScreen44 binding assay H2 (h); conditions: antagonist radioligand, read-out: % Inhibition of Specific Control Binding
Source text: as §1

ETA (h) = ETA (h) (Homo sapiens, UniProt P25101); test: SafetyScreen44 binding assay ETA (h); conditions: agonist radioligand, read-out: % Inhibition of Specific Control Binding
Source text: as §1

beta 2 (h) = beta 2 (h) (Homo sapiens, UniProt P07550); test: SafetyScreen44 binding assay beta 2 (h); conditions: antagonist radioligand, read-out: % Inhibition of Specific Control Binding
Source text: as §1

human AChE = human AChE (Homo sapiens, UniProt P22303); assay type: biochemical
CCK1 (CCKA) (h) = CCK1 (CCKA) (h) (Homo sapiens, UniProt P32238); test: SafetyScreen44 binding assay CCK1 (CCKA) (h); conditions: agonist radioligand, read-out: % Inhibition of Specific Control Binding
Source text: as §1

BZD (central) = test: SafetyScreen44 binding assay BZD (central); conditions: at 1 μM; agonist radioligand
Source text: as §1

[2] = target: N neuronal alpha 4beta 2 (h) (Homo sapiens, UniProt P17787+P43681); test: SafetyScreen44 binding assay N neuronal alpha 4beta 2 (h); conditions: agonist radioligand, read-out: % Inhibition of Specific Control Binding
Source text: as §1

5-HT2A (h) = 5-HT2A (h) (Homo sapiens, UniProt P28223); test: SafetyScreen44 binding assay 5-HT2A (h); conditions: agonist radioligand, read-out: % Inhibition of Specific Control Binding
Source text: as §1

mu (MOP) (h) = mu (MOP) (h) (Homo sapiens, UniProt P35372); test: SafetyScreen44 binding assay mu (MOP) (h); conditions: agonist radioligand, read-out: % Inhibition of Specific Control Binding
Source text: as §1

COX2(h) = COX2(h) (Homo sapiens, UniProt P35354); test: SafetyScreen44 enzyme assay COX2(h); assay type: biochemical; conditions: read-out: % Inhibition of Control Values
Source text: as §1

kappa (h) (KOP) = kappa (h) (KOP) (Homo sapiens, UniProt P41145); test: SafetyScreen44 binding assay kappa (h) (KOP); conditions: agonist radioligand, read-out: % Inhibition of Specific Control Binding
Source text: as §1

COX1(h) = COX1(h) (Homo sapiens, UniProt P23219); test: SafetyScreen44 enzyme assay COX1(h); assay type: biochemical; conditions: read-out: % Inhibition of Control Values
Source text: as §1

Sequence of human AChE (P22303 32-614): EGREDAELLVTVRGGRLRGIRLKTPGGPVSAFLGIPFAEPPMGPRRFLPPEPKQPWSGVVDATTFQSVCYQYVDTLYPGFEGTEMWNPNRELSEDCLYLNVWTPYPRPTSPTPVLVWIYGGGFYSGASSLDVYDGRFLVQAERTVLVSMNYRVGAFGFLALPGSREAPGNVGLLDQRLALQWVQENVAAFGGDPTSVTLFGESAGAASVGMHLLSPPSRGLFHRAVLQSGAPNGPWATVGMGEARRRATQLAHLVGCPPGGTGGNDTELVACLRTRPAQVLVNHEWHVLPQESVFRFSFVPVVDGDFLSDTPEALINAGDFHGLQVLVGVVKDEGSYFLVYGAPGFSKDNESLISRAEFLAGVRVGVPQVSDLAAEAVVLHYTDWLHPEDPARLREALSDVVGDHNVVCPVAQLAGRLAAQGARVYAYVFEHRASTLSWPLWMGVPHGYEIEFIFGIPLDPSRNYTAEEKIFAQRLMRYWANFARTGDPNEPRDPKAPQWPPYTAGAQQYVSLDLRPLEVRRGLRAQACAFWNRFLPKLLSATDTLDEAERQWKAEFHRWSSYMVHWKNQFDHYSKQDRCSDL
Sequence of eel acetylcholinesterase (AChE) (O42275 24-633): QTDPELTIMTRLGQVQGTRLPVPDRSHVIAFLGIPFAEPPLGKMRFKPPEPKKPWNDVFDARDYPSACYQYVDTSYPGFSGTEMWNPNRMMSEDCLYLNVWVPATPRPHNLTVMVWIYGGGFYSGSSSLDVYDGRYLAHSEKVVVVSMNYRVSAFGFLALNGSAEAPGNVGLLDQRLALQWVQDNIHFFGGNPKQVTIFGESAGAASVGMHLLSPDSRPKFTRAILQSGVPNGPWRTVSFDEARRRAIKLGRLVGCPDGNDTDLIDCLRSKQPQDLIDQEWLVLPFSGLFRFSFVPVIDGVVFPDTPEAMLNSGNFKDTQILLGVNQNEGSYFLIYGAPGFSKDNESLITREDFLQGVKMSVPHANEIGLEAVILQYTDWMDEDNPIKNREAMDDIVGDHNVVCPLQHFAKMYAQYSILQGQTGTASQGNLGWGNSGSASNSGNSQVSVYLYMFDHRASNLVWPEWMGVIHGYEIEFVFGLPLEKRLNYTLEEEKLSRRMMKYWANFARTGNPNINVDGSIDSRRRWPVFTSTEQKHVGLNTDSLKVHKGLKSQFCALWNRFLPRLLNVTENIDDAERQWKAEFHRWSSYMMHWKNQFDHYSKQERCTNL
Sequence of H2 (h) (P25021 whole entry): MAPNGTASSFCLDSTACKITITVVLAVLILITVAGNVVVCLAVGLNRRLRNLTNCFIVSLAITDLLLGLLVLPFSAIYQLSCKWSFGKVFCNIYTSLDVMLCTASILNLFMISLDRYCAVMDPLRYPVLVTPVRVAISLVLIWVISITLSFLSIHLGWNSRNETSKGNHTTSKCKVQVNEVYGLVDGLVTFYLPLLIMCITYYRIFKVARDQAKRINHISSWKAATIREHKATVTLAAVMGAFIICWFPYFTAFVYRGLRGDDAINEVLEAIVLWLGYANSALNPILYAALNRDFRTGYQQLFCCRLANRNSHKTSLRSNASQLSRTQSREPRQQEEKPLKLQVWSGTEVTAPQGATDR
Sequence of 5-HT2A (h) (P28223 whole entry): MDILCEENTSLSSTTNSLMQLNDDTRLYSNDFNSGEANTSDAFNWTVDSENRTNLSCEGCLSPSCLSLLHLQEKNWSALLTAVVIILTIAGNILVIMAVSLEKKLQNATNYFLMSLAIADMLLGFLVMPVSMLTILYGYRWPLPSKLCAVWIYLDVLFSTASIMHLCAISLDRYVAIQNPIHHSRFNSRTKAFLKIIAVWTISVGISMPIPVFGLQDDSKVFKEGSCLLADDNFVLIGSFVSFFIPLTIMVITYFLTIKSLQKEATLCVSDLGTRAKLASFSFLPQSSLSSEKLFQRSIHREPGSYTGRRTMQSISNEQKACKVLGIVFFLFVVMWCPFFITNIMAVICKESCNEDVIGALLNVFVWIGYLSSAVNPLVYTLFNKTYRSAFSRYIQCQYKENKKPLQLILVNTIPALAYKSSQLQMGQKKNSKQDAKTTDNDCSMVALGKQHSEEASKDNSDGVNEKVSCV
Sequence of COX2(h) (P35354 18-604): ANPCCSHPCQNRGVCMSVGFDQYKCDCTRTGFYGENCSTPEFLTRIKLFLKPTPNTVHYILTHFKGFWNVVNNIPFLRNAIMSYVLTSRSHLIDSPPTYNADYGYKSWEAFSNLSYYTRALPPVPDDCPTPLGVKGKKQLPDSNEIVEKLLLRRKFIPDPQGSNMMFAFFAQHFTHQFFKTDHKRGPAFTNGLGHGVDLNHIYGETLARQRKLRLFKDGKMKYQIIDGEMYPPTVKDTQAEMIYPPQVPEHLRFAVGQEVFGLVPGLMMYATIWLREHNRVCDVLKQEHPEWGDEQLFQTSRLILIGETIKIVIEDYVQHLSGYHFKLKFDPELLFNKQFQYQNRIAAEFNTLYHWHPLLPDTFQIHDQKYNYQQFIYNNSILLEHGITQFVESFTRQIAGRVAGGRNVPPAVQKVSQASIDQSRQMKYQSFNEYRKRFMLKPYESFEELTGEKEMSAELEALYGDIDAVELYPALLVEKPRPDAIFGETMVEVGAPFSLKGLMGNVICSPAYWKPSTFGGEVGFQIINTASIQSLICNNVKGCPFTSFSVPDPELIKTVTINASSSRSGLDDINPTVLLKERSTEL
Sequence of M2 (h) (P08172 whole entry): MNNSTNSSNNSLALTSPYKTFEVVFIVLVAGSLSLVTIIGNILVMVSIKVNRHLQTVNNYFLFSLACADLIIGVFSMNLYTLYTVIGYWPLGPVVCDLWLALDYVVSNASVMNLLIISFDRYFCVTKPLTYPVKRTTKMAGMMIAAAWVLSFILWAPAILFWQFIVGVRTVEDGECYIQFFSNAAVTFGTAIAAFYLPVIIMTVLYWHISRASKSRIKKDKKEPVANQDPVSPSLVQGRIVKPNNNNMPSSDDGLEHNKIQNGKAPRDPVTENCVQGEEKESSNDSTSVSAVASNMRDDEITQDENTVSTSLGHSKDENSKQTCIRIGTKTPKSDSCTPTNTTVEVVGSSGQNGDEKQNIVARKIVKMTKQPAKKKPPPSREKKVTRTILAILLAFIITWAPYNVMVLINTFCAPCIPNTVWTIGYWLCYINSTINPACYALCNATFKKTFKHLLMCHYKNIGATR
Sequence of CCK1 (CCKA) (h) (P32238 whole entry): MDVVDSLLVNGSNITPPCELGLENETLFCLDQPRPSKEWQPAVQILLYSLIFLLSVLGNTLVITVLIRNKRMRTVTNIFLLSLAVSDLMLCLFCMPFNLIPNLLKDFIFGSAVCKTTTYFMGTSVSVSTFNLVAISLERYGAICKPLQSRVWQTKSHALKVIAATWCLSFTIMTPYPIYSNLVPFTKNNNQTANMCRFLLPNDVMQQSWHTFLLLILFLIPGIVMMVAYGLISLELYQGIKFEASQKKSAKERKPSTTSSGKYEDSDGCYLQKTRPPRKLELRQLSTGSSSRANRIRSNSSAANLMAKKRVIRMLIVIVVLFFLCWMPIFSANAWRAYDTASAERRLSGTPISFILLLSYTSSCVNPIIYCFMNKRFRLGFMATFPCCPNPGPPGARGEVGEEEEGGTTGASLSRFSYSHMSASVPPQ
Sequence of ETA (h) (P25101 21-427): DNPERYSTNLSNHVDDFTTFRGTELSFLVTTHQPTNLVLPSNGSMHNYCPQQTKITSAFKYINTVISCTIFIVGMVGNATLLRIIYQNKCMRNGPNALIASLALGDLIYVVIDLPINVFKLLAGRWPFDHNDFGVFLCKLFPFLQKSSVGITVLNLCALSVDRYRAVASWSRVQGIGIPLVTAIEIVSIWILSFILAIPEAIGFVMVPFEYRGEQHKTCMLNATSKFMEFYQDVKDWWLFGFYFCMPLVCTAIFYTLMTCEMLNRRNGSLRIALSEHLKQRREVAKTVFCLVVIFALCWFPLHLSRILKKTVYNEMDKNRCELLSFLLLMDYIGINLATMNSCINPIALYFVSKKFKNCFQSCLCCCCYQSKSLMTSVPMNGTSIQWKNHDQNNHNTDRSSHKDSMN
Sequence of V1a (h) (P37288 whole entry): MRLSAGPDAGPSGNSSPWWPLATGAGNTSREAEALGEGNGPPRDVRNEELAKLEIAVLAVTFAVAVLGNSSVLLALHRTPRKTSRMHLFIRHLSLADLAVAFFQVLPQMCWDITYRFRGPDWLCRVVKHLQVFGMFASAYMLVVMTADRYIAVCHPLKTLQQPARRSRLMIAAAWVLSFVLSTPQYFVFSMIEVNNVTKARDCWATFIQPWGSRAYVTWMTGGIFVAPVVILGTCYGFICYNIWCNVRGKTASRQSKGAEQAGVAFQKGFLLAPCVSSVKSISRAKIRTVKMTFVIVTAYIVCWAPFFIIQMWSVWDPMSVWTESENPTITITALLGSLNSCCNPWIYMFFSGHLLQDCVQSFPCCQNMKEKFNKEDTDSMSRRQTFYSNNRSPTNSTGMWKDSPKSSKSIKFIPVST
Sequence of mu (MOP) (h) (P35372 whole entry): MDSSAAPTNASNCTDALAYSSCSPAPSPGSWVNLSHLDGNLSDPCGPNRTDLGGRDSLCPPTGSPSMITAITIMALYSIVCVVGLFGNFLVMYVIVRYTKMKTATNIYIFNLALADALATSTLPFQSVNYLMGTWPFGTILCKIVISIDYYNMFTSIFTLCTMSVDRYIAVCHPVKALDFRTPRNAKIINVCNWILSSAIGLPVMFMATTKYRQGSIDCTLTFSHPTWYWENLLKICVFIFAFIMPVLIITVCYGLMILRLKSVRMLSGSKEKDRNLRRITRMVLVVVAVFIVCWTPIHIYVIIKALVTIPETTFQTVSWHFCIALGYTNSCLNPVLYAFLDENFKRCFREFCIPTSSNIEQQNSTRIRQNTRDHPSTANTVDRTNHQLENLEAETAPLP

## CCN(CC)CCOc1ccc2c(c1)C(=O)c1cc(OCCN(CC)CC)ccc1-2 [tilorone]
GR (h)
  inhibition at 1 µM: -5%
M2 (h)
  inhibition at 1 µM: 26%
hERG potassium channel
  inhibition at 1 µM: -4%
D1 (h)
  inhibition at 1 µM: -10%
M1 (h)
  inhibition at 1 µM: 28%
[1]; dose-response, 1% DMSO
  IC50: 14.4 nM
[1]; eel AChE activity, at 20 μM, read-out: Percentage inhibition
  inhibition at 20 µM: 103%
[1]; parallel dose-response with 5 μM H2O2
  assay interference test versus enzyme-free H2O2 reaction: likely represent true inhibition of the enzyme
[1]; read-out: inhibition of enzyme activity compared to DMSO control (screen)
  inhibition at 20 µM: ≥ 50%
[1]; sixteen-point serial dilution, four-parameter fit
  Hill slope, eel AChE dose-response: 0.62
V1a (h)
  inhibition at 1 µM: -1%
Dopamine transporter (h)
  inhibition at 1 µM: -9%
NMDA
  % Inhibition of Specific Control Binding: −10%
H2 (h)
  inhibition at 1 µM: -11%
ETA (h)
  inhibition at 1 µM: 5%
Beta 2 (h)
  inhibition at 1 µM: -6%
Human AChE; % Inhibition of Control Values
  Bottom of curve, Eurofins human AChE: −7
  Top of curve, Eurofins human AChE: 99
Human AChE; third-party photometric assay, read-out: IC50 against human AChE (Eurofins Discovery)
  IC50: 56 nM
Human AChE; two-fold dilution from 5 μM
  Hill slope, Eurofins human AChE curve: 1.0
CCK1 (CCKA) (h)
  inhibition at 1 µM: -5%
BZD (central)
  % Inhibition of Specific Control Binding: −9%
[2]
  inhibition at 1 µM: 0%
5-HT2A (h)
  inhibition at 1 µM: 25%
Mu (MOP) (h)
  inhibition at 1 µM: -4%
COX2(h)
  inhibition at 1 µM: -1%
Kappa (h) (KOP)
  inhibition at 1 µM: 4%
COX1(h)
  inhibition at 1 µM: -17%
